Source: US5480893A, “Inhibitors of farnesyl protein transferase” (Merck & Co., Inc., priority 1994, dated 1996)

Tests used:
[1] = tested on: Ras farnesylation; conditions: literature; cited from earlier work
[2] = molecular target: T1, Farnesyl-protein transferase (FTase) from bovine brain (Bos taurus, UniProt P29702+P49355); assay: In vitro inhibition of Ras Farnesyl Transferase; type: biochemical; conditions: Ras-CVLS 3.5 μM, [3H]FPP 0.25 μM, partially purified bovine brain FTase; read-out: IC50 (concentration of compound which gives 50% inhibition of FTase)
T1 construct: Farnesyl-protein transferase (FTase) from bovine brain; from tissue; host or cells: bovine brain, partially purified (DEAE-Sephacel, N-octyl agarose, Mono Q HPLC)
Experimental: In vitro inhibition of Ras Farnesyl Transferase […] Ras-CVLS at 3.5 μ[…], and the indicated compounds were incubated with this partially purified enzyme preparation. The FTase data presented below is a measurement of the ability of the test compound to inhibit Ras farnesylation in vitro. | *(IC50 is the concentration of compound which gives 50% inhibition o | FTase under the described assay conditions)

[3] = tested on: Ras farnesylation in the v-ras cell line (Ha-ras p21); assay: In vivo ras farnesylation assay (v-ras cell line); type: cell-based
Experimental: In vivo ras farnesylation assay
The cell line used in this assay was the v-ras line, which expressed vital Ha-ras p21. The assay was performed essentially as described in DeClue, J. E. et. al., Cancer Reasearch 51, 712-717, (1991). Cells in 10 cm dishes at 50-75% confluency were treated with the test compound (final concentration of solvent, methanol or dimethyl sulfoxide, was 0.1%). After 4 hours at 37° C., the cells were labelled in 3 ml methionine-free DMEM supplemeted with 10% regular DMEM, 2% fetal bovine serum and 400 μCi[^35 S] methionine (1000 Ci/mmol). After an additional 20 hours, the cells were lysed in 1 ml lysis buffer (1% NP40/20 nnM HEPES, pH 7.5/5 mM MgCl2 /1 mM DTT/10 μg/ml aprotinen/2 μg/ml leupeptin/2 μg/ml antipain/0.5 mM PMSF) and the lysates cleared by centrifugation at 100,000×g for 45 min. Aliqouts of lysates containing equal numbers of acid-precipitable counts were brought to 1 ml with IP buffer (lysis buffer lacking DTT) and immunoprecipitated with the ras-specific monoclonal antibody Y13-259 (Furth, M. E. et al., J. Virol. 43, 294-304, (1982)). Following a 2 hour antibody incubation at 4° C., 200 μl of a 25% suspension of protein A-Sepharose coated with rabbit anti rat IgG was added for 45 min. […]

SMILES	Inhibition of Ras farnesylation in vivo [1]	IC50 [2] [nM]	further results
CC[C@H](C)C(=O)O[C@H]1CCC=C2C=C[C@H](C)[C@H](CC[C@@H]3C[C@@H](O)CC(=O)O3)[C@H]21 [compactin]	Inhibition of Ras farnesylation in vivo has been demonstrated	–	–
CC[C@H](C)[C@H](NC[C@@H](N)CS)C(=O)N[C@H](C(=O)N[C@@H](CCCO)C(=O)O)[C@@H](C)CC	–	24	–
CC[C@H](C)C(=O)O[C@H]1C[C@@H](C)C=C2C=C[C@H](C)[C@H](CC[C@@H]3C[C@@H](O)CC(=O)O3)[C@H]21 [lovastatin]	Inhibition of Ras farnesylation in vivo has been demonstrated	–	–
CC[C@H](C)[C@H](NC[C@@H](NC[C@@H](N)CS)[C@@H](C)CC)C(=O)N[C@H]1CCOC1=O [N-[2(S)-(2(R)-amino-3-mercaptopropylamino)-3(S)-methylpentyl]isoleucyl-homoserine lactone]	–	950	inhibition at 100 µM ([3]; at 100 μM test concentration, 4 hours then additional 20 hours with [35S]methionine): 90%
CC[C@H](C)[C@H](NC[C@@H](NC[C@@H](N)CS)[C@@H](C)CC)C(=O)N[C@@H](CCO)C(=O)O [N-[2(S)-(2(R)-amino-3-mercaptopropylamino)-3(S)-methylpentyl]isoleucyl-homoserine]	–	12	Inhibition of Ras farnesylation ([3]; result in words, test concentration not printed for this compound): No Inhibition
CC[C@H](C)[C@H](NC[C@@H](N)CS)C(=O)N[C@H](C(=O)N[C@H]1CCCOC1=O)[C@@H](C)CC [N-[N'-(2(R)-amino-3-mercaptopropyl)isoleucyl-isoleucyl]-3(S)-aminotetrahydropyran-2-one]	–	470	–
